Experimental data taken from patent publication US20080286771A1, “Method of Predicting the Responsiveness of a Tumour to Erbb Receptor Drugs” (priority 2004, published 2008).
Like-named read-outs stand apart in the source and are kept apart here.

How the values were obtained:
advanced NSCLC [1] = conditions: advanced NSCLC previously treated with chemotherapy, cited from earlier work
[2] = tested on: RT112 bladder tumour cell line xenograft; experiment: RT112 xenograft response to gefitinib; format: in vivo, nude mice
Source text: (§1) This definition is based on the response observed when the tumour cell line is implanted into nude mice and grown as a xenograft. This definition has been used for all the pre-clinical studies described herein.

[3] = tested on: GEO colon tumour cell line xenograft; experiment: GEO xenograft response to gefitinib; format: in vivo, nude mice
Source text: (§2) This definition is based on the response observed when the tumour cell line is implanted into nude mice and grown as a xenograft. This definition has been used for all the pre-clinical studies described herein. […] BT474 (ATCC No. HTB-20)-breast tumour cell line • b. DU145 (ATCC No. HTB-81)-[…] tumour cell line • c. MCF7 (ATCC No. HTB-22, sourced from ICRP (now CR-UK), London), -breast tumour cell line • d. GEO colon tumour cell line.

[4] = tested on: MCF7 breast tumour cell line xenograft; experiment: MCF7 xenograft response to gefitinib; format: in vivo, nude mice
Source text: as §2

[5] = tested on: PC3 prostate tumour cell line xenograft; experiment: PC3 xenograft response to gefitinib; format: in vivo; conditions: PC3 xenograft in nude mice
Source text: (§3) This definition is based on the response observed when the tumour cell line is implanted into nude mice and grown as a xenograft. This definition has been used for all the pre-clinical studies described herein. Initially a small panel of six human tumour cell lines were assembled, three which are sensitive to gefitinib and three which are resistant to gefitinib in the xenograft setting defined above. The sensitive cell lines were; • 1.

[6] = tested on: HX147 lung tumour cell line xenograft; experiment: HX147 xenograft response to gefitinib; format: in vivo, nude mice
Source text: as §1

[7] = tested on: DU145 tumour cell line xenograft; experiment: DU145 xenograft response to gefitinib; format: in vivo, nude mice
Source text: as §2

[8] = tested on: Calu 6 lung tumour cell line xenograft; experiment: Calu 6 xenograft response to gefitinib; format: in vivo; conditions: Calu 6 xenograft in nude mice
Source text: as §3

[9] = tested on: A431 epidermoid cell line xenograft; experiment: A431 xenograft response to gefitinib; format: in vivo, nude mice
Source text: as §2

[10] = tested on: MKN45 gastric tumour cell line xenograft; experiment: MKN45 xenograft response to gefitinib; format: in vivo; conditions: MKN45 xenograft in athymic mice, oral dosing once daily, mean tumour volume
Source text: as §3

[11] = tested on: HT29 colon tumour cell line xenograft; experiment: HT29 xenograft response to gefitinib; format: in vivo; conditions: HT29 xenograft in nude mice
Source text: as §3

[12] = tested on: BT474 breast tumour cell line xenograft; experiment: BT474 xenograft response to gefitinib; format: in vivo, nude mice
Source text: as §2

advanced NSCLC [13] = conditions: cited from earlier work; for Objective response rate (Complete Response+Partial Response): advanced NSCLC previously treated with chemotherapy
[14] = tested on: SW620 colon tumour cell line xenograft; experiment: SW620 xenograft response to gefitinib; format: in vivo, nude mice
Source text: as §1

[15] = tested on: MiaPac2 pancreatic tumour cell line xenograft; experiment: MiaPac2 xenograft response to gefitinib; format: in vivo, nude mice
Source text: as §1

KB cell line xenograft = experiment: KB xenograft response to gefitinib; format: in vivo; conditions: KB xenograft in nude mice
Source text: as §3

[16] = tested on: MDAMB231 breast tumour cell line xenograft; experiment: MDAMB231 xenograft response to gefitinib; format: in vivo, nude mice
Source text: as §1

[17] = tested on: Lovo colon tumour cell line xenograft; experiment: Lovo xenograft response to gefitinib; format: in vivo; conditions: Lovo xenograft in nude mice
Source text: as §3

[18] = tested on: A549 lung tumour cell line xenograft; experiment: A549 xenograft response to gefitinib; format: in vivo; conditions: A549 xenograft in athymic mice, oral dosing once daily, mean tumour volume
Source text: as §2

C#Cc1cccc(Nc2ncnc3cc(OCCOC)c(OCCOC)cc23)c1 [erlotinib]
prolongs survival (advanced NSCLC [1]; across the population): ~2 months | reduction in risk of death at one year (advanced NSCLC [1]): 41%

COc1cc2ncnc(Nc3ccc(F)c(Cl)c3)c2cc1OCCCN1CCOCC1 [gefitinib, N-(3-chloro-4-fluorophenyl)-7-methoxy-6-(3-morpholinopropoxy)quinazolin-4-amine]
response when grown as a xenograft (sensitive/resistant) [2]: resistant | response when grown as a xenograft (sensitive/resistant) [3]: sensitive | response when grown as a xenograft (sensitive/resistant) [4]: sensitive | response when grown as a xenograft (sensitive/resistant) [5]: resistant | response when grown as a xenograft (sensitive/resistant) [6]: resistant | response when grown as a xenograft (sensitive/resistant) [7]: sensitive | response when grown as a xenograft (sensitive/resistant) [8]: resistant | response when grown as a xenograft (sensitive/resistant) [9]: sensitive | response when grown as a xenograft (sensitive/resistant) [10]: resistant | response when grown as a xenograft (sensitive/resistant) [11]: sensitive | response when grown as a xenograft (sensitive/resistant) [12]: sensitive | Objective response rate (Complete Response+Partial Response) (advanced NSCLC [13]; IDEAL 1 trial, predominantly Japanese): 18.4% | Objective response rate (Complete Response+Partial Response) (advanced NSCLC [13]; IDEAL 2 trial, predominantly European-derived population): 11.8% | patients overall benefit (objective response, stable disease and/or symptom improvement) (advanced NSCLC [13]; IDEAL trials): approximately 50% | toxicity (advanced NSCLC [13]; single agent, advanced NSCLC patients): limited toxicity | response when grown as a xenograft (sensitive/resistant) [14]: resistant | response when grown as a xenograft (sensitive/resistant) [15]: resistant | response when grown as a xenograft (sensitive/resistant) (KB cell line xenograft): sensitive | response when grown as a xenograft (sensitive/resistant) [16]: resistant | response when grown as a xenograft (sensitive/resistant) [17]: sensitive | response when grown as a xenograft (sensitive/resistant) [18]: sensitive
